Laboratory results as given in PMC7463460, “Structure and Antiparasitic Activity Relationship of Alkylphosphocholine Analogues against Leishmania donovani” (Microorganisms, 2020).
Where “and” joins values, the source holds several entries; their conditions need not be identical. Equal entries are not always repeated.

How the values were obtained:
[1] = two-component population PK model; listed as Milt; cited from earlier work
visceral leishmaniasis = conditions: VL monotherapy, Nepal, 12 months post-treatment; cited from earlier work
L. donovani strain LV82 = test: Murine VL model, parasite burdens in spleen, liver and bone marrow; type: in vivo, Leishmania donovani in BALB/c mice
Procedure: BALB/c mice were infected by intravenous injection (tail vein, no anesthetic) with 1–2 × 10^7 L. donovani strain LV82 amastigote parasites, obtained from the spleen of an infected hamster. Mice (n = 4/treatment) were treated with PBS pH 7.4 (controls) or APC12 (40 or 80 mg/kg) by intravenous injection (tail vein, no anesthetic, 0.2 mL) on days 7 and 8 post-infection or a single oral dose on day 7 post-infection. Milt was not given orally at a dose of 80 mg/kg because of its potential toxicity. On day 14, parasite burdens in the liver, spleen and bone marrow were determined. Results are from duplicate experiments, however, if a treatment had no significant effect then it […] in subsequent experiments.

[2] = system: L. donovani 275/18 (Sb-resistant) promastigotes; test: Promastigote luciferase assay, Sb-resistant strain 275/18; type: cell-based, Leishmania donovani; conditions: for IC50: Leishmania donovani, read-out: Mean IC50 Promastigotes; for Promast: Amast Ratio: strain 275/18, Sb-resistant; for Cross-Resistance Index (CRI50) Promast: strain 275/18, Sb-resistant vs Sb-S
From the text: (§1) L. donovani cloned strains with different Sb susceptibility backgrounds were derived from isolates obtained from VL patients at the B.P. Koirala Institute of Health Sciences, Dharan, Nepal: MHOM/NP/02/BPK282/0cl4 (Sb sensitive, Sb-S). MHOM/NP/02/BPK087/0cl11 (Sb intermediate, Sb-I) and MHOM/NP/02/BPK275/0cl18 (Sb resistance, Sb-R [13]). In addition, Milt-resistant parasites raised against these three Sb sensitivity backgrounds and the Sb-sensitive strain (MHOM/ET/67:LV82) was also used in studies. Luciferase expressing promastigotes for the LV82 and Nepalese strains were prepared using previously published methods and the integrative construct (a gift from Dr D.F. Smith), designated pGL1313, contained pSSU-int fragments to facilitate integration into the ribosomal RNA locus of Leishmania.
The anti-leishmanial activity of APC against L. donovani luciferase-expressing promastigotes was determined by adding of the appropriate 100 µL parasite line (10^6 cells/mL) to the wells of a 96-well plate and adding 100 µL medium alone (controls) or 100 µL of APC compound (0.01 µg/mL–6.25 µg/mL, n = 3/treatment). […].
(§2) Luciferin solution (1 µg/mL in 20 µL medium without FCS) was added to the appropriate wells of the 96-well plate at the end of the experiment and the amount of light emitted/well was measured using a luminometer (Biotek Synergy HT, relative light units) using a wavelength/bandwidth of 440/40 nm, or IVIS® imaging (Spectrum Living Image system®, total flux, photons/sec).
(§3) The effect of drug treatment on parasite survival was determined by calculating the mean suppression in the light emitted from the drug-treated experimental sample compared to the mean control value and used to calculate the IC50 using Grafit® software (version 5.0, Erithacus Software, East Grinstead, West Sussex, UK). The effect of drug alone on the viability of uninfected macrophages was determined using the same experimental protocol above, but cell viability was determined using an alamar blue colorimetric assay. At the end of the incubation period, cells’ 10 µL resazurin solution (0.02% w/v) was added to control and drug treated cells and the absorbance of samples was read at 575 and 595 nm. The effect of drug treatment on cell survival, which correlates with the magnitude of dye reduction, was expressed as percentage viability (or alamar blue reduction) and determined using the formula provided in the manufacturer’s protocol % alamar blue reduction=(εoxλ)(Aλ1)−(εoxλ1)(Aλ2)/(εredλ1)(A^′λ2)−(εredλ2)(A^′λ1)x100
Cross resistance (CRI50) indexes were determined as Cross selectivity indices (CRI)=mean IC50 value for the relevant drug−resistant strain i.e., Sb−I or Sb−R / mean IC50 value drug−sensitive strain Sb−S

[3] = system: L. donovani 275/18 (Sb-resistant) intracellular amastigotes; test: Intracellular amastigote assay, Sb-resistant strain 275/18; type: cell-based, Leishmania donovani; conditions: for IC50: Leishmania donovani, read-out: Mean IC50 Amastigotes; for Cross-Resistance Index (CRI50) Amast: strain 275/18, Sb-resistant vs Sb-S; for Selectivity Index (SI50): strain 275/18, Sb-resistant, macrophage CC50 / amastigote IC50
From the text: as §1
In the macrophage studies, the method described in previous studies was used as follows. Briefly, bone-marrow-derived BALB/c macrophages (1–2 × 10^5) in 100 µL complete RPMI 1640 medium were added to the wells of a 96 well plate and left to adhere for 24 h at 37 °C, 5% CO₂/95% air. The medium was removed and 100 µL of the appropriate L. donovani luciferase-expressing promastigotes line (parasite: host cell ratio 1:10, 1:20 or 1:40) was added to each well, the ratio used reflected the infectivity of the strain and ensured that control data gave a bioluminescent signal within the same range. […] The variability in infectivity complicates strain to strain comparisons, but we decided to focus on achieving good infection levels in controls so that the effect of drug treatment could be determined. It is possible that intracellular macrophage parasites could have been at different developmental stages at 24 h post-infection. […] Therefore, we assumed that the effect of compounds on the amastigote stage rather than the promastigotes stage was determined in in vitro macrophage studies.
The plate was incubated for a further 24 h, the medium removed, and each well washed with PBS to eliminate non-internalized parasites, which were monitored microscopically. When the wells were devoid of external parasites, 100 µL of the medium alone (control) or appropriate APC compound was then added (0.01–0.197 µg/mL, n = 3/treatment). […]. All plates were incubated for 72 h at 37 °C, 5% CO₂/95% air. Wells with macrophage and with no drug or promastigotes added were used in control experiments.
as §2
as §3, with “reduction=(εoxλ)(Aλ1)−(εoxλ1)(Aλ2)/(εredλ1)(A^′λ2)−(εredλ2)(A^′λ1)x100 […]” for “reduction=(εoxλ)(Aλ1)−(εoxλ1)(Aλ2)/(εredλ1)(A^′λ2)−(εredλ2)(A^′λ1)x100”

[4] = 40 mg/kg oral, day 7 post-infection, assessed day 14, Experiment 1
[5] = 40 mg/kg IV, assessed day 14, Experiment 2
[6] = 80 mg/kg oral, assessed day 14, Experiment 2

SMILES | Mean Parasite Burden ± SD Bone Marrow (L. donovani strain LV82; [4]) | Mean Parasite Burden ± SD Liver (L. donovani strain LV82; [4]) | Mean Parasite Burden ± SD Spleen (L. donovani strain LV82; [4]) | mean percentage suppression ± SD in parasite burden, Bone Marrow (L. donovani strain LV82; [4]) [%] | mean percentage suppression ± SD in parasite burden, Liver (L. donovani strain LV82; [4]) [%] | mean percentage suppression ± SD in parasite burden, Spleen (L. donovani strain LV82; [4]) [%] | IC50 [2] | Promast: Amast Ratio [2] | IC50 [3] | Cross-Resistance Index (CRI50) Promast [2] | Cross-Resistance Index (CRI50) Amast [3] | Selectivity Index (SI50) [3] | further results
CCCCCCCCCCCCCCCCOP(=O)([O-])OCC[N+](C)(C)C [APC16, hexadecylphosphocholine, reference compound] | 197 ± 157 | 433 ± 46 | 73 ± 68 | 30 ± 35 | 40 ± 25 | 53 ± 31 | 1.26 µg/mL and 3.09 µM | 2.49 | 0.51 µg/mL and 1.25 µM |  |  |  | threshold concentration between non-saturable and saturable component [1]: 50 μM and 20.4 μg/mL; relapse rate (visceral leishmaniasis): 20%
CCCCCCCCCCCCCCOP(=O)([O-])OCC[N+](C)(C)C [APC14, tetradecylphosphocholine] |  |  |  |  |  |  | 0.37 µg/mL and 970 nM | 1.31 | 0.28 µg/mL and 740 nM | 0.84 | 2.33 | 146.04 | 
CCCCCCCCCCCCOP(=O)([O-])OCC[N+](C)(C)C [APC12, dodecylphosphocholine] | 210 ± 90 | 880 ± 276 | 275 ± 96 | 54 ± 34 | 36 ± 34 | 8 ± 18 | 0.49 µg/mL and 1.39 µM | 2.10 | 0.23 µg/mL and 650 nM | 0.89 | 0.88 | 153.83 | Mean Parasite Burden ± SD Bone Marrow (L. donovani strain LV82; [5]): 555 ± 254; Mean Parasite Burden ± SD Liver (L. donovani strain LV82; [5]): 434 ± 197; Mean Parasite Burden ± SD Spleen (L. donovani strain LV82; [5]): 112 ± 30; mean percentage suppression ± SD in parasite burden, Bone Marrow (L. donovani strain LV82; [5]): 8 ± 14%; mean percentage suppression ± SD in parasite burden, Liver (L. donovani strain LV82; [5]): 60 ± 11% and 60 ± 19%; mean percentage suppression ± SD in parasite burden, Spleen (L. donovani strain LV82; [5]): 60 ± 19% and 60 ± 11%; Mean Parasite Burden ± SD Bone Marrow (L. donovani strain LV82; [6]): 607 ± 115; Mean Parasite Burden ± SD Liver (L. donovani strain LV82; [6]): 939 ± 170; Mean Parasite Burden ± SD Spleen (L. donovani strain LV82; [6]): 257 ± 73; mean percentage suppression ± SD in parasite burden, Bone Marrow (L. donovani strain LV82; [6]): 2 ± 4%; mean percentage suppression ± SD in parasite burden, Liver (L. donovani strain LV82; [6]): 27 ± 16%; mean percentage suppression ± SD in parasite burden, Spleen (L. donovani strain LV82; [6]): 13 ± 27%
